Data on one molecule can be found in ChEMBL document CHEMBL4382262, “Structurally Simple, Readily Available Peptidomimetic 1-Benzyl-5-methyl-4-( n-octylamino)pyrimidin-2(1 H)-one Exhibited Efficient Cardioprotection in a Myocardial Ischemia (MI) Mouse Model” (J Med Chem, 2018).

The target of data set [1] is T1, Toll-like receptor 4 (Rattus norvegicus) (UniProt Q9QX05).
T1 sequence (whole entry): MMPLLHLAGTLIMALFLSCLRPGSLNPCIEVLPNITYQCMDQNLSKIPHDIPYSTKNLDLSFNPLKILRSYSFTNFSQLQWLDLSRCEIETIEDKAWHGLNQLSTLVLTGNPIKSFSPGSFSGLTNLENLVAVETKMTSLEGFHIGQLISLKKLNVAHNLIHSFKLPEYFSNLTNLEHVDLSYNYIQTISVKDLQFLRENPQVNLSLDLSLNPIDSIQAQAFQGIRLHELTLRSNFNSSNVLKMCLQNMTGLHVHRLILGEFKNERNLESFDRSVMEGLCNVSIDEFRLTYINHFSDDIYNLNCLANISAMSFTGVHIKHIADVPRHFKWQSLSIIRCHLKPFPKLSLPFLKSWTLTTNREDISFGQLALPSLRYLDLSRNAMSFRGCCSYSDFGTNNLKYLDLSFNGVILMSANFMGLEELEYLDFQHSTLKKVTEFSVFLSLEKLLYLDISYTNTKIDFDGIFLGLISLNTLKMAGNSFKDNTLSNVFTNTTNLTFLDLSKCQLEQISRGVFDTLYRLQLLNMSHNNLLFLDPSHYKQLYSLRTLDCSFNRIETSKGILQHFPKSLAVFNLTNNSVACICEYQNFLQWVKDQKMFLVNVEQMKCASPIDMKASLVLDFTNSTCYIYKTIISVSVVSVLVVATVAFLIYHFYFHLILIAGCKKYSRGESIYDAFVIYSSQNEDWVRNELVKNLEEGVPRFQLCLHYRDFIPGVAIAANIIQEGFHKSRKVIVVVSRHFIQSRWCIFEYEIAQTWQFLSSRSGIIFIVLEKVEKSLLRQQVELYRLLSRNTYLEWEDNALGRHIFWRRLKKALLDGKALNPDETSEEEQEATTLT
Kind of data set: Inhibition of TLR4 in Sprague-Dawley rat cardiomyocytes assessed as reduction in hypoxia-induced creatine kinase levels at 20 uM preincubated for 1 hr followed by induction of hypoxia measured after 3 hrs by NADP reduction based colorimetric analysis. In kind it is cell-based.

For data set [2], the target named is T1, Toll-like receptor 4 (Rattus norvegicus). Briefly: Inhibition of TLR4 in hypoxia-induced Sprague-Dawley rat cardiomyocytes assessed as increase in IkappaB-alpha protein expression at 20 uM preincubated for 1 hr followed by hypoxia for 3 hrs by Western blot analysis relative to untreated control. (In western blotting, separated proteins are transferred to a membrane and probed.)

For data set [3] the target is unchanged. Kind of data set: Inhibition of TLR4 in Sprague-Dawley rat cardiomyocytes assessed as reduction in hypoxia-induced creatine kinase levels at 20 uM preincubated for 1 hr followed by hypoxia for 3 hrs by NADP reduction based colorimetric analysis. In kind it is cell-based.
Data set [4] deals with Mus musculus. Briefly: Cardioprotective activity in C57BL mouse model of left anterior descending coronary artery ligation-induced myocardial ischemia assessed as reduction in fibrosis at 0.3 mg/kg, iv treated 1 hr after left anterior descending coronary artery ligation and measured after 7 days post LAD by hematoxylin/eosin staining based light microscopy. The class given is functional, organism-based.

Data set [5] can be described thus: Reduction in hypoxia-induced TLR4 mRNA expression in Sprague-Dawley rat cardiomyocytes at 20 uM preincubated for 1 hr followed by hypoxia for 3 hrs by RT-qPCR analysis relative to untreated control. The class given is functional, Cardiac muscle cell.
The target of data set [6] is T1, Toll-like receptor 4 (Rattus norvegicus). Kind of data set: Inhibition of TLR4 in Sprague-Dawley rat cardiomyocytes assessed as reduction in hypoxia-induced creatine kinase levels at 5 uM preincubated for 1 hr followed by hypoxia for 3 hrs by NADP reduction based colorimetric analysis. In kind it is cell-based.
Data set [7] has as its system Mus musculus. Kind of data set: Cardioprotective activity in C57BL mouse model of left anterior descending coronary artery ligation-induced myocardial ischemia assessed as reduction in serum LDH levels at 0.3 mg/kg, iv treated 1 hr after by left anterior descending coronary artery ligation and measured after 7 days post LAD. In kind it is functional, organism-based.

Data set [8] deals with Mus musculus. Kind of data set: Cardioprotective activity in C57BL mouse model of left anterior descending coronary artery ligation-induced myocardial ischemia assessed as reduction in heart infarct size at 0.3 mg/kg, iv treated 1 hr after left anterior descending coronary artery ligation and measured after 7 days post LAD. In kind it is functional, organism-based.
Data set [9] deals with T1, Toll-like receptor 4 (Rattus norvegicus). Briefly: Inhibition of TLR4 in Sprague-Dawley rat cardiomyocytes assessed as reduction in hypoxia-induced IL-1beta mRNA expression at 20 uM preincubated for 1 hr followed by hypoxia for 3 hrs by RT-qPCR analysis. The class given is cell-based. (In general: In qPCR the cycle at which signal appears reflects the starting amount.)

The target is the same in data set [10]. Kind of data set: Inhibition of TLR4 in Sprague-Dawley rat cardiomyocytes assessed as reduction in hypoxia-induced LDH release at 5 uM preincubated for 1 hr followed by hypoxia for 3 hrs by NADH detection based colorimetric analysis. In kind it is cell-based. A general note: LDH leaks from cells whose membrane has failed.
For data set [11] the target is unchanged. Kind of data set: Inhibition of TLR4 in Sprague-Dawley rat cardiomyocytes assessed as reduction in hypoxia-induced LDH release at 20 uM preincubated for 1 hr followed by hypoxia for 3 hrs by NADH detection based colorimetric analysis. In kind it is cell-based.
The subject of data set [12] is Mus musculus. Kind of data set: Cardioprotective activity in C57BL mouse model of left anterior descending coronary artery ligation-induced myocardial ischemia assessed as reduction in LDH […] levels at 0.3 mg/kg, iv pretreated for 1 hr followed by left anterior descending coronary artery ligation. In kind it is functional, organism-based.
The subject of data set [13] is Cardiac muscle cell. Kind of data set: Cytotoxicity against Sprague-Dawley rat cardiomyocytes assessed as reduction in cell viability at 50 uM. The class given is cell-based.
Data set [14] addresses T1, Toll-like receptor 4 (Rattus norvegicus). Briefly: Inhibition of TLR4 in Sprague-Dawley rat cardiomyocytes assessed as reduction in hypoxia-induced LDH levels by measuring NADH levels at 20 uM preincubated for 1 hr followed by induction of hypoxia measured after 3 hrs by colorimetric analysis. The class given is cell-based.
In data set [15] the test system is Mus musculus. Briefly: Cardioprotective activity in C57BL mouse model of left anterior descending coronary artery ligation-induced myocardial ischemia assessed as reduction in creatine kinase levels at 0.3 mg/kg, iv pretreated for 1 hr followed by left anterior descending coronary artery ligation. In kind it is functional, organism-based.
Data set [16] deals with Mus musculus. Kind of data set: Cardioprotective activity in C57BL mouse model of left anterior descending coronary artery ligation-induced myocardial ischemia assessed as reduction in heart infarct size at 0.3 mg/kg, iv pretreated for 1 hr followed by left anterior descending coronary artery ligation. The class given is functional, organism-based.
Data set [17] concerns the target T1, Toll-like receptor 4 (Rattus norvegicus). Briefly: Inhibition of TLR4 in Sprague-Dawley rat cardiomyocytes assessed as reduction in hypoxia-induced LDH release at 10 uM preincubated for 1 hr followed by hypoxia for 3 hrs by NADH detection based colorimetric analysis. The class given is cell-based.
Data set [18] has the same target. Kind of data set: Inhibition of TLR4 in Sprague-Dawley rat cardiomyocytes assessed as reduction in hypoxia-induced TRAM protein expression at 20 uM preincubated for 1 hr followed by hypoxia for 3 hrs by Western blot analysis relative to untreated control. The class given is cell-based.
Data set [19] has as its system Mus musculus. Kind of data set: Cardioprotective activity in C57BL mouse model of left anterior descending coronary artery ligation-induced myocardial ischemia assessed as reduction in heart infarct size at 0.05 to 1 mg/kg, iv pretreated for 1 hr followed by left anterior descending coronary artery ligation. The class given is functional, organism-based.
Data set [20] concerns Mus musculus. Kind of data set: Cardioprotective activity in C57BL mouse model of left anterior descending coronary artery ligation-induced myocardial ischemia assessed as reduction in creatine kinase levels at 0.3 mg/kg, iv treated 1 hr after by left anterior descending coronary artery ligation and measured after 7 days post LAD. In kind it is functional, organism-based.

Data set [21] deals with Mus musculus. Kind of data set: Cardioprotective activity in C57BL mouse model of left anterior descending coronary artery ligation-induced myocardial ischemia assessed as reduction in heart infarct size at 0.3 mg/kg, iv treated 1 hr after left anterior descending coronary artery ligation and measured after 24 hrs post LAD. The class given is functional, organism-based.

Molecules are shown by their SMILES. The source made the active and inactive calls. The rule behind the calls is not given here.

On to `CCCCCCCCNc1nc(=O)n(Cc2ccccc2)cc1C`, for which the inhibition entry in data set [1], in data set [3], in data set [11], in data set [14] and in [17] was “Active” each time. Moreover, the fold change (FC) in data set [2] came out at 3.3; in data set [5], 3.1; in data set [9] it was 15; in data set [18], 2.8. In addition, the outcome in [4], in data set [7], in [8], in [12], in data set [15] and in data set [16] was Active. The outcome in data set [19] and in data set [20] was Active. The inhibition entry in [6] and in [10] was “inactive” each time. Moreover, the Activity entry in [13] was “Toxic”. In data set [21], the result was inactive.
